Measurements taken from paper PMC6675791, “Clozapine-dependent inhibition of EGF/neuregulin receptor (ErbB) kinases” (Translational Psychiatry, 2019).

What was measured:
Test in all cases: in vitro kinase assay (ELISA, Tyr-Glu heteropolymer substrate, […] ATP, […] Triton X-100)
Assay type in all cases: biochemical
ErbB1 kinase = molecular target: T1, ErbB1 kinase (Homo sapiens, UniProt P00533)
T1 construct: gene EGFR; recombinant truncated ErbB1 kinase (intracellular domain, lacking the extracellular domain)

ErbB4 kinase = molecular target: T2, ErbB4 kinase (Homo sapiens, UniProt Q15303)
T2 construct: recombinant truncated ErbB4 kinase (intracellular domain, lacking the extracellular domain)

ErbB2 kinase = molecular target: T3, ErbB2 kinase (Homo sapiens, UniProt P04626)
T3 construct: recombinant truncated ErbB2 kinase (intracellular domain, lacking the extracellular domain)
T3 sequence (P04626 676-1255 limits assumed): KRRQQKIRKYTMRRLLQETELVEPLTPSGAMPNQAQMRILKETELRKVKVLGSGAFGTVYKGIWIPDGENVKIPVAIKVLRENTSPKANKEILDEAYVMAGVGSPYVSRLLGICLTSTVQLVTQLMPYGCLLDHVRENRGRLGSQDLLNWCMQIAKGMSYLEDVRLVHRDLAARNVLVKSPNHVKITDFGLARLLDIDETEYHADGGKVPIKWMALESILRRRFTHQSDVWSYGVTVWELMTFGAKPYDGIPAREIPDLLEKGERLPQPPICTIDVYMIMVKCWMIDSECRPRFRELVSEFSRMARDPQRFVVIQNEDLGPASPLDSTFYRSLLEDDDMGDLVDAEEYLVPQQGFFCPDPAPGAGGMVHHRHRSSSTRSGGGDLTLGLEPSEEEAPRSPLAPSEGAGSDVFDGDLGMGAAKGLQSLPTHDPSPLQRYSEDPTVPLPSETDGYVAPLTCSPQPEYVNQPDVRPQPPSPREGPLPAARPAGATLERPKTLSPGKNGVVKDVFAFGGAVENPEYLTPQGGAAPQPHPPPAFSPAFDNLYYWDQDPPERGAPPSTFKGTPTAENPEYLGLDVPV

T2 sequence (Q15303 676-1308 limits assumed): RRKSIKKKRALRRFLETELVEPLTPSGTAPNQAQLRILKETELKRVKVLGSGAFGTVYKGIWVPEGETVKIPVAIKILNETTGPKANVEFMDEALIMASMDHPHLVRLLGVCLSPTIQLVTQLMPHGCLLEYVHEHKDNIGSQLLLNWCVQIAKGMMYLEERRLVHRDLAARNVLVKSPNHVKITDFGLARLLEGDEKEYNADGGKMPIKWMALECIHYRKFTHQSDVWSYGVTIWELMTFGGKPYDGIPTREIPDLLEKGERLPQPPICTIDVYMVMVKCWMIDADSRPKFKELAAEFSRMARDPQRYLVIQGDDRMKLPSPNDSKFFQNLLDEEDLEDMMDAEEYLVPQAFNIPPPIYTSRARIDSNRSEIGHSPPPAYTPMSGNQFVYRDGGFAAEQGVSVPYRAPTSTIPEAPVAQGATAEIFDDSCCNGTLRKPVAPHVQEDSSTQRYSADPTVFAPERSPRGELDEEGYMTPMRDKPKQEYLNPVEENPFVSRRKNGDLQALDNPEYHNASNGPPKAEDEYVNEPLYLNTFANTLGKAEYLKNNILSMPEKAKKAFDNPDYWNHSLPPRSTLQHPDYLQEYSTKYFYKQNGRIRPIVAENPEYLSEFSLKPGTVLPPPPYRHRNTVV
T1 sequence (P00533 669-1210 limits assumed): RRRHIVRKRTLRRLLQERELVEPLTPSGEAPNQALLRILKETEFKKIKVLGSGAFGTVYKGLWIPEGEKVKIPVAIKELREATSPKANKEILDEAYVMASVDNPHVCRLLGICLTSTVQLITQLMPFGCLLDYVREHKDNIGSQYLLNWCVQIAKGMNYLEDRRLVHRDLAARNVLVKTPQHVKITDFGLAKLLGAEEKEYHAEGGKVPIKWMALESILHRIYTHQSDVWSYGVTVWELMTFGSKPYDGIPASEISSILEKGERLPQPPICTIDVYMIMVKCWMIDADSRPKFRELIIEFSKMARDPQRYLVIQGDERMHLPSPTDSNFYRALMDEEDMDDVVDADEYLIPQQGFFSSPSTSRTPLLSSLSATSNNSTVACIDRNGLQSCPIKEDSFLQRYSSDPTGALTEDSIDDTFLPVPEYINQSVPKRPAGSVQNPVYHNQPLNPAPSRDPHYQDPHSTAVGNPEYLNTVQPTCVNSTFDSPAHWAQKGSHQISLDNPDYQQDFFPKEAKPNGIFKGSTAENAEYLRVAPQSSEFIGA

CN1CCN(C2=Nc3cc(Cl)ccc3Nc3ccccc32)CC1 [CLZ, clozapine]
in vitro kinase assay (ELISA, Tyr-Glu heteropolymer substrate, 4 mM ATP, 0.2% Tr) (ErbB1 kinase): 30 µM | in vitro kinase assay (ELISA, Tyr-Glu heteropolymer substrate, 4 mM ATP, 0.2% Tr) (ErbB4 kinase): 30 µM | in vitro kinase assay (ELISA, Tyr-Glu heteropolymer substrate, 4 mM ATP, 0.2% Tr) (ErbB2 kinase): 3 µM
